Data as given in patent US20120108947A1, “METHOD FOR PREDICTING WEIGHT GAIN ASSOCIATED WITH A PHARMACEUTICAL THERAPY” (priority 2009, published 2012).

Conditions: in vivo
Protocol: TRL V1, V2, V3, V4, V5 and V6 responses and VLDL size response are measured during each visit along with increases in weight. […] The relationship of the change in TRL V6 to the change in weight is analyzed using a mixed effects model analysis.

## Cc1cc2c(s1)Nc1ccccc1N=C2N1CCN(C)CC1 [olanzapine, 2-methyl-4-(4-methyl-1-piperazinyl)-10H-thieno[2,3-b][1,5]benzodiazepine]
  magnitude of the TRL V6 response and VLDL size response in comparison to pre-dose concentration: increases
